Assay results from US9540389B2, “Antimicrobial potentiators” (priority 2013, dated 2017).

Legend:
[1] = test system: Escherichia coli ATCC 25922; experiment: MIC assay (microbroth dilution) ± 25 μM EPI; format: cell-based
Description: (§1) • Strains and Reagents. The following strains were obtained from the Keio collection (Baba, et al.: Construction of Escherichia coli K-12 in-frame, single-gene knockout mutants: the Keio collection. In Mol Syst Biol, vol. 2, pp. 2006 0008, (2006)): JW0451 (ΔacrB::kan), JW5503 (ΔtolC::kan), JW3234 (ΔacrF::kan), JW2661 (ΔemrB::kan), JW0863 (ΔmacB::kan). The deletion mutations in each of these strains were transferred to AB1157 using P1 phage transduction (see Table 1). The construction of the E. coli cell-based reporter strain (SOS-XXX) that was used for high throughput screening is described in detail in the supplementary information. […] Irgasan was a generous gift from Ciba Speciality Chemicals, Inc. (High Point, N.C.). Hoechst 33342 (H33342) was purchased from Molecular Probes (Eugene, Oreg.). […] Luria Broth (Miller) and agar were purchased as prepared dehydrated media from Becton Dickenson (Franklin Lakes, N.J.). The compound libraries used in high-throughput screens were purchased from Chembridge (San Diego, Calif.), ChemDiv (San Diego, Calif.), and TimTec (Newark, Del.). MBX2319 was synthesized by Microbiotix, Inc. • Antibacterial Activity Assays. The minimal inhibitory concentration (MIC) of antibacterial agents and biocides were determined using the microbroth dilution method essentially as described in the CLSI protocol M7-A7 (CLSI: Method for dilution antimicrobial susceptibility testing for bacteria that grow aerobically; Approved standard-document M7-A7. In Clinical and Laboratory Standards Institute document M7-A7, Clinical and Laboratory Standards Institute, Wayne, Pa., (2006)), with the following exceptions. LB media was used instead of MHB. […] The final concentration of DMSO in each assay was 2%. […] MIC assays were performed in triplicate and the geometric mean was calculated. Checkerboard MIC assays using an EPI and an antibacterial agent were performed essentially as described (Pillai, et al.: Antimicrobial Combinations. In Antibiotics in Laboratory Medicine, ed. by V. Lorian, pp. 365-440, Lippincott Williams & Wilkins, Philadelphia, Pa., (2005)), with the same modifications used for the MIC assays described above. • Time-Kill Assays. Killing curve assays were performed essentially as described (Pillai, et al.: Antimicrobial Combinations. In Antibiotics in Laboratory Medicine, ed. by V. Lorian, pp. 365-440, Lippincott Williams & Wilkins, Philadelphia, Pa., (2005)). Exponential bacterial cultures grown in LB were diluted to a cell density of ˜1×10^7 in LB followed by addition of CIP and/or an EPI. Viability was monitored over 2-4 hours by making serial dilutions in saline and spotting 5 μl of each dilution onto the surface of an LB agar plate in triplicate. Colonies were counted after the plates were incubated at 37° C. for 16-18 hr, colony forming units (CFU) per ml were calculated, and the average and standard deviation for the three replicates was determined. For treatments that decreased CFU/ml below the limit of detection for the spot plating method, the 100 μl samples were diluted into 5 ml LB top agar, were poured onto LB agar plates, and incubated for 18 hr at 37° C. To calculate the fraction of the control for each sample, the average CFU/ml values for treated samples were divided by those from the same sample at 0 h (time=0). Each experiment was repeated at least three times, and a representative experiment is shown. • H33342 Accumulation Assay. The rate of accumulation of the fluorescent dye Hoechst 33342 (H33342), which is a substrate of a wide variety of bacterial efflux pumps (van den Berg van Saparoea, et al., Biochemistry, vol. 44, pp. 16931-16938, (2005)), can be used to estimate the activity of the major efflux pumps in E. coli and many other bacterial species. The H33342 accumulation assay was used to evaluate the effect of EPIs on the activity of the AcrAB-TolC efflux pump in several bacterial species essentially as described (Coldham, et al., J Antimicrob Chemother, vol. 65, pp. 1655-1663, (2010)). […]

[2] = test system: Klebsiella pneumoniae ATCC 700603; experiment: MIC assay (microbroth dilution) ± 25 μM EPI; format: cell-based
Description: as §1

[3] = test system: Salmonella enterica ATCC 14028; experiment: MIC assay (microbroth dilution) ± 25 μM EPI; format: cell-based
Description: as §1

Escherichia coli 331 = experiment: MIC assay (microbroth dilution) ± 25 μM EPI; format: cell-based; settings: E. coli 331
Description: as §1

[4] = test system: Shigella flexneri ATCC 12022; experiment: MIC assay (microbroth dilution) ± 25 μM EPI; format: cell-based
Description: as §1

Escherichia coli AB1157 = experiment: MIC assay (microbroth dilution) ± 25 μM EPI; format: cell-based
Description: as §1

[5] = test system: Enterobacter aerogenes ATCC 13048; experiment: MIC assay (microbroth dilution) ± 25 μM EPI; format: cell-based
Description: as §1

P. aeruginosa ATCC 27853 = experiment: MIC assay (microbroth dilution) ± 25 μM EPI; format: cell-based, Pseudomonas aeruginosa
Description: as §1

[6] = test system: Escherichia coli 287 (AB1157, CIPR, overexpresses efflux); experiment: microbe, parasite or virus in culture; format: cell-based
Description: as §1

[7] = test system: Escherichia coli 285 (AB1157, CIPR, overexpresses efflux); experiment: microbe, parasite or virus in culture; format: cell-based
Description: as §1

[8] = Escherichia coli, read-out: MIC (μg/ml) with MBX2319 at concn (μM) of: 0

## CO/N=C(\C(=O)N[C@@H]1C(=O)N2C(C(=O)O)=C(COC(C)=O)CS[C@H]12)c1csc(N)n1 [CEF, cefotaxime]
[1]; E. coli ATCC 25922, + 25 μM MBX2319
  MIC (μg/ml) ± EPI: MBX2319: 0.063 µg/mL
[1]; E. coli ATCC 25922, + 25 μM PAβN
  MIC (μg/ml) ± EPI: PAβN: 0.25 µg/mL
[1]; Escherichia coli, ATCC25922, read-out: MIC (μg/ml) ± EPI: None
  MIC: 0.074 µg/mL
[2]; + 25 μM MBX2319
  MIC (μg/ml) ± EPI: MBX2319: 8 µg/mL
[2]; + 25 μM PAβN
  MIC (μg/ml) ± EPI: PAβN: 8 µg/mL
[2]; ATCC700603, no EPI, read-out: MIC (μg/ml) ± EPI: None
  MIC: 8 µg/mL
[3]; + 25 μM MBX2319
  MIC (μg/ml) ± EPI: MBX2319: 0.063 µg/mL
[3]; + 25 μM PAβN
  MIC (μg/ml) ± EPI: PAβN: 0.297 µg/mL
[3]; ATCC14028, no EPI, read-out: MIC (μg/ml) ± EPI: None
  MIC: 0.21 µg/mL
Escherichia coli 331; + 25 μM MBX2319
  MIC (μg/ml) ± EPI: MBX2319: 0.031 µg/mL
Escherichia coli 331; + 25 μM PAβN
  MIC (μg/ml) ± EPI: PAβN: 0.353 µg/mL
[4]; Shigella flexneri ATCC 12022, + 25 μM MBX2319
  MIC (μg/ml) ± EPI: MBX2319: 0.031 µg/mL
[4]; Shigella flexneri ATCC 12022, + 25 μM PAβN
  MIC (μg/ml) ± EPI: PAβN: 0.063 µg/mL
[4]; Shigella flexneri, ATCC12022, read-out: MIC (μg/ml) ± EPI: None
  MIC: 0.063 µg/mL
Escherichia coli AB1157; E. coli AB1157 (WT), + 25 μM MBX2319, geometric mean
  MICs (μg/ml) ± EPIs: MBX2319: 0.022 µg/mL
Escherichia coli AB1157; E. coli AB1157 (WT), + 25 μM PAβN, geometric mean
  MICs (μg/ml) ± EPIs: PAβN: 0.25 µg/mL
Escherichia coli AB1157; Escherichia coli, AB1157, read-out: MICs (μg/ml) ± EPIs: None
  MIC: 0.1 µg/mL
[5]; + 25 μM MBX2319
  MIC (μg/ml) ± EPI: MBX2319: 2.4 µg/mL
[5]; + 25 μM PAβN
  MIC (μg/ml) ± EPI: PAβN: 6.7 µg/mL
[5]; Klebsiella aerogenes, ATCC13048, no EPI, read-out: MIC (μg/ml) ± EPI: None
  MIC: 2 µg/mL
P. aeruginosa ATCC 27853; + 25 μM MBX2319
  MIC (μg/ml) ± EPI: MBX2319: 8 µg/mL
P. aeruginosa ATCC 27853; + 25 μM PAβN
  MIC (μg/ml) ± EPI: PAβN: 19 µg/mL
P. aeruginosa ATCC 27853; Pseudomonas aeruginosa, ATCC27853, no EPI, read-out: MIC (μg/ml) ± EPI: None
  MIC: 53.8 µg/mL
[6]; 287, MBX2319 6.25 μM
  MIC (μg/ml) with MBX2319 at concn (μM) of: 6.25: 0.063 µg/mL
[6]; 287, MBX2319 25 μM
  MIC (μg/ml) with MBX2319 at concn (μM) of: 25: 0.063 µg/mL
[6]; 287, MBX2319 50 μM
  MIC (μg/ml) with MBX2319 at concn (μM) of: 50: 0.063 µg/mL
[6]; [8]
  MIC: 0.25 µg/mL
[7]; 285, MBX2319 3.13 μM
  MIC (μg/ml) with MBX2319 at concn (μM) of: 3.13: 0.063 µg/mL
[7]; 285, MBX2319 6.25 μM
  MIC (μg/ml) with MBX2319 at concn (μM) of: 6.25: 0.063 µg/mL
[7]; 285, MBX2319 25 μM
  MIC (μg/ml) with MBX2319 at concn (μM) of: 25: 0.031 µg/mL
[7]; 285, MBX2319 50 μM
  MIC (μg/ml) with MBX2319 at concn (μM) of: 50: 0.031 µg/mL
[7]; [8]
  MIC: 0.25 µg/mL
